Assay results: patent US10342796B2, “Acrylanilide derivative, preparation method, and applications thereof in pharmacy” (Ancureall Pharmaceutical (Shanghai) Co., Ltd., priority 2015, dated 2019)
Read-outs that look alike come from different tables or passages of the source.

Experiments:
[1] = test system: H1993 (Met amp); test: Growth inhibition GI50 in vitro (CCK8/MTT, 72 h); type: cell-based; conditions: Homo sapiens, NCI-H1993, H1993, EGFR wt
Protocol: (§1) Human gastric cancer cell line MKN-45 (ATCC) and NSCLC cell line NCI-H1993 (ATCC) were cultured with 1×RPMI1640 complete medium which was supplement with 10% FBS, respectively.
(§2) The suspension cells were collected by centrifugation. The supernatant was discard and the cell pellet was resuspended and counted. Different cell concentrations (5˜10×10^4 cells/mL) were prepared according to the growth cycle of each cell line and then seeded on a 96-well plate (Corning), 100 μL/well. The cells were incubated over night at 37° C., 5% CO2. The compounds were added to the cells on the second day with 2 wells in parallel. The final concentration of organic solvent shall not exceed 1%. The cells were continually incubated for 72 h, and then subjected to MTT assay.
(§3) The present compounds and the reference compounds were dissolved with DMSO (Sigma), respectively. […] The storage concentration of compounds was 10 mM and kept at −20° C. They were diluted by 2 times or 10 times with serial dilution before using.
(§4) Dojindo CCK8 reagent kit was used as MTT assay. […] FC meter was used as microplate reader.
(§5) Adherent cell culture medium was discard and immediately replaced with fresh prepared medium which contains 10% CCK8 reagent (100 μL/well). For the suspension cells, CCK8 was directly added to 10% of the final concentration. The cells were continually incubated for 1˜4 h. When the color of control wells turned to dark yellow, the absorption value was measured at OD450 nm. The cell growth rate was calculated according to the following formula: cell growth rate (%)=100*(T−T0)/(C−T0), T=optical density of drug treatment cell well—optical density of blank control well; T0=optical density of cell well before drug treatment—optical density of blank control well; C=optical density of cell well of solvent control group—optical density of blank control well. […] The experiment was independently repeated 1˜3 times, and subject to biological statistical analysis.
(§6) Growth inhibition assay was conducted in the cell lines shown Table 14 with the different oncogene mutations. Each compound started at 1000 nM as an initial concentration and was diluted by 2 times with serial dilution to 0.03 nM.

[2] = test system: MKN-45 (Met amp); test: Growth inhibition GI50 in vitro (CCK8/MTT, 72 h); type: cell-based; conditions: Homo sapiens, MKN-45, EGFR wt
Protocol: as §1, §2, §3, §4, §5, §6

[3] = test system: Karpas-299 (NPM-ALK); test: Growth inhibition GI50 in vitro (CCK8/MTT, 72 h); type: cell-based; conditions: Homo sapiens, Karpas-299, EGFR wt
[4] = test system: MV4-11 (FLT3-ITD); test: Growth inhibition GI50 in vitro (CCK8/MTT, 72 h); type: cell-based, human; conditions: for GI50: Homo sapiens, MV4-11, FLT3-ITD; for inhibition effects: FLT3-ITD+ MV4-11 cells
Protocol: FLT3 is a kind of PTK and about 20-30% of patients with acute myelocytic leukemia (AML) in clinic express FLT3-ITD mutation protein. FLT3-ITD positive cell line MV4-11 was cultured with 1×RPMI1640 complete medium (supplement with 10% FBS).
as §2, §3, §4, §5, §6

[5] = test system: SNU1040 (HER2 V777M positive); test: Growth inhibition GI50 in vitro (CCK8/MTT, 72 h); type: cell-based; conditions: Homo sapiens, read-out: GI50 SNU-1040 (HER2 V777M)
[6] = Pharmacokinetics in rat; type: in vivo, Sprague-Dawley (SD) rats; conditions: male, Sprague-Dawley, plasma, SD rat, iv 5 mg/kg, solvent water
Protocol: Sprague-Dawley (SD) rats (male) were purchased from Shanghai SIPPR BK Laboratory Animals Co. and kept under specific pathogen-free conditions adaptively for 7 days in the Shanghai University of Traditional Chinese Medicine animal care facility (All animal studies were conducted with the approval of the University Ethics Committee). The rats were randomly divided to 2 groups (3 rats/group) for each compound. One group was administrated by tail vein injection (iv) and the other group was intragastrically administrated. The compound was formulated into a clear aqueous solution with methanesulfonic acid, PH>3.5. The rats were starved for 12 hours before drug administration and the blood samples were collected from the orbital plexus at 0 min (before drug administration), 2 min, 5 min, 15 min, 30 min, 1 h, 2 h, 4 h, 6 h, 8 h and 24 h, respectively. Each blood sample was added to a 1.5 mL centrifuge tube with heparin sodium and then centrifuged at 8000 rpm at 4° C. for 3 min. Upper blood serum was collected. The compound concentration in plasma was determined by LC-MS/MS. The pharmacokinetics parameters were calculated with the professional pharmacokinetics software WinNonlin. The experiment was repeated once.

[7] = Table 16, 1000 nM to 0.03 nM serial dilution

GI50 [1]	GI50 [2]	GI50 [3]	GI50 [4]	bioavailability ([6]; po 25 mg/kg)	bioavailability ([6]; po 50 mg/kg)	GI50 [5, 7]	Compound	GI50 [5]	inhibition effects [4]
	465 nM	500 nM	156 nM				C=CC(=O)Nc1cc(Nc2ncnc(Nc3cccc(Br)c3)n2)c(OC)cc1N1CCC(N2CCCC2)CC1 [Compound 118]		moderate inhibition effects
> 1000 nM	> 1000 nM	> 1000 nM	> 1000 nM	50.3%			C=CC(=O)Nc1cc(Nc2nccc(Nc3ccc(OCc4ccccn4)c(Cl)c3)n2)c(OC)cc1N(C)CCN(C)C [Compound 18, N-(5-(4-(3-chloro-4-(pyridin-2-methoxyl)phenylamino)pyrimidin-2-ylamino)-2-((2-(dimethylamino)ethyl)(methyl)amino)-4-methoxyl-phenyl)-acrylamide]		
> 1000 nM	500 nM	500 nM	> 1000 nM				C=CC(=O)Nc1cc(Nc2ncc(Cl)c(Nc3ccc(OCc4ccccn4)c(Cl)c3)n2)c(OC)cc1N(C)CCN(C)C [Compound 19, N-(5-(5-chloro-4-(3-chloro-4-(pyridin-2-methoxyl)phenylamino)-pyrimidin-2-ylamino)-2-((2-(dimethylamino)ethyl)(methyl)amino)-4-methoxyl-phenyl)-acrylamide]		
					40.9%	19.5 nM	C=CC(=O)Nc1cc(Nc2nccc(-n3ccc4c(OC)cccc43)n2)c(OC)cc1N(C)CCN(C)C [Compound 99, N-(5-(4-(4-methoxyl-1H-indol-1-yl)-pyrimidin-2-ylamino)-2-(2-(dimethylamino-ethyl)-methyl-amino)-4-methoxyl-phenyl)-acrylamide]		
> 1000 nM	> 1000 nM	500 nM	> 1000 nM				C=CC(=O)Nc1cc(Nc2nccc(Nc3cccc(Cl)c3)n2)c(OC)cc1N(C)CCN(C)C [Compound 2, N-(5-(4-(3-chloro-phenylamino)-pyrimidin-2-ylamino)-2-(2-(dimethylamino-ethyl)-methyl-amino)-4-methoxyl-phenyl)-acrylamide]		
						5.42 nM	C=CC(=O)Nc1cc(Nc2cc(Nc3cc(F)c(OC)c(Cl)c3)ncn2)c(OC)cc1N(C)CCN(C)C [Compound 236, N-(5-(6-(3-chloro-5-fluoro-4-methoxyphenylamino)-pyrimidin-4-yl-amino)-2-((2-dimethylamino-ethyl)-methyl-amino)-4-methoxyl-phenyl)-acrylamide]		
> 1000 nM	> 1000 nM	> 1000 nM	> 1000 nM				C=CC(=O)Nc1cc(Nc2cc(Nc3ccc(F)c(Cl)c3)ncn2)c(OC)cc1N1CCN(C2CCN(C)CC2)CC1 [Compound 147, N-(5-(6-(3-chloro-4-fluoro-phenylamino)-pyrimidin-4-ylamino)-4-methoxyl-2-(4-(1-methylpiperidin-4-yl)-piperazin-1-yl)-phenyl)-acrylamide]		
				55.8%			C=CC(=O)Nc1cc(Nc2nccc(-n3ccc4ccc(F)cc43)n2)c(OC)cc1N(C)CCN(C)C [Compound 63, N-(5-(4-(6-fluoro-1H-indol-1-yl)-pyrimidin-2-ylamino)-2-((2-(dimethylamino)ethyl)-methyl-amino)-4-methoxyl-phenyl)-acrylamide]		
						14.3 nM	C=CC(=O)Nc1cc(Nc2nccc(-n3ccc4c(OCCOC)cccc43)n2)c(OC)cc1N(C)CCN(C)C [Compound 205, N-(5-(4-(4-(2-methoxyl-ethoxyl)-1H-indol-1-yl)-pyrimidin-2-ylamino)-2-(2-(dimethylamino-ethyl)-methyl-amino)-4-methoxyl-phenyl)-acrylamide]		
						16.2 nM	C=CC(=O)Nc1cc(Nc2cc(Nc3cc(OC)c(Cl)cc3Cl)ncn2)c(OC)cc1N(C)CCN(C)C [Compound 136, N-(5-(6-(2,4-dichloro-5-methoxyl-phenylamino)-pyrimidin-4-ylamino)-2-((2-dimethylamino-ethyl)-methyl-amino)-4-methoxyl-phenyl)-acrylamide]		
> 1000 nM	465 nM	> 1000 nM	124 nM				C=CC(=O)Nc1cc(Nc2ncnc(Nc3cccc(F)c3)n2)c(OC)cc1N(C)CCN(C)C [Compound 114, N-(5-(4-(3-fluoro-phenylamino)-[1,3,5]triazin-2-ylamino)-2-((2-dimethylamino-ethyl)-methyl-amino)-4-methoxyl-phenyl)-acrylamide]		moderate inhibition effects
> 1000 nM	> 1000 nM	> 1000 nM	> 1000 nM				C=CC(=O)Nc1cc(Nc2nccc(-n3cnc4ccccc43)n2)c(OC)cc1N(C)CCN(C)C [Compound 106]		
> 1000 nM	> 1000 nM	> 1000 nM	> 1000 nM				C=CC(=O)Nc1cc(Nc2cc(Nc3ccc(F)c(Cl)c3)ncn2)c(OC)cc1N(C)CCN(C)C [Compound 140, N-(5-(6-(3-chloro-4-fluoro-phenylamino)-pyrimidin-4-ylamino)-2-((2-dimethylamino-ethyl)-methyl-amino)-4-methoxyl-phenyl)-acrylamide]		moderate inhibition effects
> 1000 nM	500 nM	> 1000 nM	> 1000 nM				C=CC(=O)Nc1cc(Nc2cc(-c3cn(C(C)C)c4ccccc34)ncn2)c(OC)cc1N(C)CCN(C)C [Compound 183]		moderate inhibition effects

Compound	GI50 [1]	GI50 [2]	GI50 [3]	GI50 [4]	bioavailability ([6]; po 25 mg/kg)	bioavailability ([6]; po 50 mg/kg)	GI50 [5, 7]	GI50 [5]	inhibition effects [4]
C=CC(=O)Nc1cc(Nc2nccc(-c3cn(C)c4ccccc34)n2)c(OC)cc1N(C)CCN(C)C [AZD9291, reference compound]	> 1000 nM	> 1000 nM	> 1000 nM	> 1000 nM				156 nM	
